Experimental data reported in patent publication US11667946B2, “Detection of beta-hemolytic pathogens” (TEMASEK LIFE SCIENCES LABORATORY LIMITED, priority 2016, dated 2023).

What was measured:
gram-positive bacteria = assay: Uptake of free H33342 by bacteria on BHI agar; type: cell-based; conditions: 160 nM, overnight
Procedure: (§1) Uptake of free H33342 by bacteria: The uptake of free H33342 was investigated by repeating the experiment as above but replacing liposomal H33342 with free H33342 dye (final concentration, 160 nM). Sodium hexametaphosphate (305553, Sigma-Aldrich) was added to a concentration of up to 0.3% for membrane permeabilization experiments.

gram-negative bacteria = assay: Uptake of free H33342 by bacteria on BHI agar; type: cell-based
Procedure: as §1

a variety of bacteria = assay: Culturing bacteria on BHI agar with free H33342; type: cell-based; conditions: 160 nM
Procedure: as §1

S. pyogenes = assay: Membrane permeabilization with sodium hexametaphosphate (H33342 uptake); type: cell-based, Streptococcus pyogenes; conditions: at 0.3%
Procedure: as §1

E. coli = assay: as above; type: cell-based, Escherichia coli; conditions: H33342 agar with sodium hexametaphosphate
Procedure: as §1

| Compound | colony association with / uptake of free dye (gram-positive bacteria) | uptake of dye (gram-negative bacteria) | lethality to bacteria (a variety of bacteria) | lethality to bacterium (S. pyogenes) | increase of colony fluorescence (E. coli) |
| --- | --- | --- | --- | --- | --- |
| CCOc1ccc(-c2nc3ccc(-c4nc5ccc(N6CCN(C)CC6)cc5[nH]4)cc3[nH]2)cc1 [H33342, Hoechst 33342] | fluoresce blue | not taken up | non-lethal |  |  |
| O=P1([O-])OP(=O)([O-])OP(=O)([O-])OP(=O)([O-])OP(=O)([O-])OP(=O)([O-])O1.[Na+].[Na+].[Na+].[Na+].[Na+].[Na+] [sodium hexametaphosphate] |  |  |  | lethal | 80% |
